Reference: patent US10172858B2, “Combination pharmaceutical compositions and uses thereof” (Intellikine LLC, priority 2011, dated 2019)
Read-outs that look alike come from different tables or passages of the source.

Assays:
[1] = target: mTORC (Homo sapiens (Human), UniProt P42345); test: mTORC in vitro IC50 (Table 2); type: biochemical
Description: The compounds described herein and any other mTor inhibitors known in the art can be tested against recombinant mTOR (Invitrogen) in an assay containing 50 mM HEPES, pH 7.5, 1 mM EGTA, 10 mM MgCl2, 2.5 mM, 0.01% Tween, 10 μM ATP (2.5 μCi of μ-32P-ATP), and 3 μg/mL BSA. Rat recombinant PHAS-1/4EBP1 (Calbiochem; 2 mg/mL) is used as a substrate. Reactions are terminated by spotting onto nitrocellulose, which is washed with 1M NaCl/1% phosphoric acid (approximately 6 times, 5-10 minutes each). Sheets are dried and the transferred radioactivity quantitated by phosphorimaging.
For instance, one can use Invitrogen's LanthaScreen™ Kinase assay to test the inhibitors of mTOR disclosed herein. This assay is a time resolved FRET platform that measures the phosphorylation of GFP labeled 4EBP1 by mTOR kinase. The kinase reaction is performed in a white 384 well microtitre plate. The total reaction volume is 20 ul per well and the reaction buffer composition is 50 mM HEPES pH7.5, 0.01% Polysorbate 20, 1 mM EGTA, 10 mM MnCl2, and 2 mM DTT. In the first step, each well receives 2 ul of test compound in 20% dimethylsulphoxide resulting in a 2% DMSO final concentration. Next, 8 ul of mTOR diluted in reaction buffer is added per well for a 60 ng/ml final concentration. To start the reaction, 10 ul of an ATP/GFP-4EBP1 mixture (diluted in reaction buffer) is added per well for a final concentration of 10 μM ATP and 0.5 μM GFP-4EBP1. The plate is sealed and incubated for 1 hour at room temperature. […] The plate is sealed, incubated for 1 hour at room temperature, and then read on a plate reader set up for LanthaScreen™ TR-FRET. Data is analyzed and IC50s are generated using GraphPad Prism 5.

[2] = target: PI3K α (Homo sapiens (Human), UniProt P42336); test: PI3K α kinase assay; type: biochemical
[3] = target: PI3K γ (Homo sapiens (Human), UniProt P48736); test: PI3K γ kinase assay; type: biochemical
[4] = target: PI3K δ (Homo sapiens (Human), UniProt O00329); test: PI3K δ kinase assay; type: biochemical
[5] = target: PI3K β (Homo sapiens (Human), UniProt P42338); test: PI3K β kinase assay; type: biochemical; settings: Table 2
[6] = test system: PC3; test: PC3 tumor cell line proliferation assay; type: cell-based; settings: Homo sapiens, PC-3; for IC50: Table 2, in vitro IC50; for EC50: Table 1
Description: The assay is performed in a 96 well microtiter plate using Alamar Blue reduction. […] A compound disclosed herein is diluted in Tumor Cell Media and added in a 10 ul volume. […] A volume of 10 uL of Alamar Blue reagent is added to each well and plates are incubated for 3 hours at 37 C and 5% CO2. Alamar Blue fluoresce is read at 560Ex/590Em, and IC50 values are calculated using GraphPad Prism 5.

Sequence of PI3K β (P42338 whole entry, species assumed): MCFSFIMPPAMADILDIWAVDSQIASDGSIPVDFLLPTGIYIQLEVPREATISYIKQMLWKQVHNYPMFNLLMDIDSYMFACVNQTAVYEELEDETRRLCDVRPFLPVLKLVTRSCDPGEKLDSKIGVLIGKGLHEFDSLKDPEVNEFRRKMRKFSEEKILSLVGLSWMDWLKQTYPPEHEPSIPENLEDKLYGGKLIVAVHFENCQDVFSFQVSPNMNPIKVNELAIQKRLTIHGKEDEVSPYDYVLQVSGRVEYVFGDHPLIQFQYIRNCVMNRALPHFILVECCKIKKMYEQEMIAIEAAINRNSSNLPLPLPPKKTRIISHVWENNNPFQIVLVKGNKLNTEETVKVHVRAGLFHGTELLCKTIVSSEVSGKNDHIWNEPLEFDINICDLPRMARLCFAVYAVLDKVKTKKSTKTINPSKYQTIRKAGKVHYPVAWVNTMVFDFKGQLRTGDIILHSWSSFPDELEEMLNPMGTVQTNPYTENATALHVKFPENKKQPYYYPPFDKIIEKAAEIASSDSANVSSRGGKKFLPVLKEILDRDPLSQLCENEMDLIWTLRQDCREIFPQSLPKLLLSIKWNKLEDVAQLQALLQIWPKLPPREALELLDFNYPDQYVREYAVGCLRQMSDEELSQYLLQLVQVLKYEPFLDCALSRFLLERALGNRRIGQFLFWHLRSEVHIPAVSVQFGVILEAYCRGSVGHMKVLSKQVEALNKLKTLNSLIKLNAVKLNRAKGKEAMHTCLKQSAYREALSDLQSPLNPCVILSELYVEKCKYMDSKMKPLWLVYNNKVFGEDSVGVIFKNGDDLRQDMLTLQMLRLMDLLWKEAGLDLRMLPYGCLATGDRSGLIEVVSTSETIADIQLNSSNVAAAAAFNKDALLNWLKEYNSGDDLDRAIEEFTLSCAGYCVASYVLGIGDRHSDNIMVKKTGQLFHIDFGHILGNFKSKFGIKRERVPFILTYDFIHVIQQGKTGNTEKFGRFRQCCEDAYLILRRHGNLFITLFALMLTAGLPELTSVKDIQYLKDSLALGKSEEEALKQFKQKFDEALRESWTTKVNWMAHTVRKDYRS
Sequence of PI3K β (P27986 whole entry partner, species assumed): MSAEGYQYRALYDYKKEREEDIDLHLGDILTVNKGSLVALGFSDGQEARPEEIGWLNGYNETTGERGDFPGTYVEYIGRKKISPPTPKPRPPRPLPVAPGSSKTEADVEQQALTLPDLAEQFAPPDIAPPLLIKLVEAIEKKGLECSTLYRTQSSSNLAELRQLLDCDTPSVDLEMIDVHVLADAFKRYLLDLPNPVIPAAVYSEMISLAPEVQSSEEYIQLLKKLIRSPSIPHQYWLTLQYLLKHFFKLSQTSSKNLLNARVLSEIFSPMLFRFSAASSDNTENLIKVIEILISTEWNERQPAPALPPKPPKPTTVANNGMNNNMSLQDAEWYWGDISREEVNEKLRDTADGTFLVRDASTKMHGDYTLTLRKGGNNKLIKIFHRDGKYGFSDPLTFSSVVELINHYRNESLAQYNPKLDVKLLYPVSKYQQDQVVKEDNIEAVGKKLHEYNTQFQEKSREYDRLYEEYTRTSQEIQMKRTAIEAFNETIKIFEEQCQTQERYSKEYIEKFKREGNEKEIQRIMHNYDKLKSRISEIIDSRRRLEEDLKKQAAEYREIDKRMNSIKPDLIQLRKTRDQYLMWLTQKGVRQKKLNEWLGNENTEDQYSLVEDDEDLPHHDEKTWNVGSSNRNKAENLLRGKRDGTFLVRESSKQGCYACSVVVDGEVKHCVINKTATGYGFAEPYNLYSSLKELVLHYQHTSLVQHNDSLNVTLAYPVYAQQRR
Sequence of PI3K γ (P48736 whole entry, species assumed): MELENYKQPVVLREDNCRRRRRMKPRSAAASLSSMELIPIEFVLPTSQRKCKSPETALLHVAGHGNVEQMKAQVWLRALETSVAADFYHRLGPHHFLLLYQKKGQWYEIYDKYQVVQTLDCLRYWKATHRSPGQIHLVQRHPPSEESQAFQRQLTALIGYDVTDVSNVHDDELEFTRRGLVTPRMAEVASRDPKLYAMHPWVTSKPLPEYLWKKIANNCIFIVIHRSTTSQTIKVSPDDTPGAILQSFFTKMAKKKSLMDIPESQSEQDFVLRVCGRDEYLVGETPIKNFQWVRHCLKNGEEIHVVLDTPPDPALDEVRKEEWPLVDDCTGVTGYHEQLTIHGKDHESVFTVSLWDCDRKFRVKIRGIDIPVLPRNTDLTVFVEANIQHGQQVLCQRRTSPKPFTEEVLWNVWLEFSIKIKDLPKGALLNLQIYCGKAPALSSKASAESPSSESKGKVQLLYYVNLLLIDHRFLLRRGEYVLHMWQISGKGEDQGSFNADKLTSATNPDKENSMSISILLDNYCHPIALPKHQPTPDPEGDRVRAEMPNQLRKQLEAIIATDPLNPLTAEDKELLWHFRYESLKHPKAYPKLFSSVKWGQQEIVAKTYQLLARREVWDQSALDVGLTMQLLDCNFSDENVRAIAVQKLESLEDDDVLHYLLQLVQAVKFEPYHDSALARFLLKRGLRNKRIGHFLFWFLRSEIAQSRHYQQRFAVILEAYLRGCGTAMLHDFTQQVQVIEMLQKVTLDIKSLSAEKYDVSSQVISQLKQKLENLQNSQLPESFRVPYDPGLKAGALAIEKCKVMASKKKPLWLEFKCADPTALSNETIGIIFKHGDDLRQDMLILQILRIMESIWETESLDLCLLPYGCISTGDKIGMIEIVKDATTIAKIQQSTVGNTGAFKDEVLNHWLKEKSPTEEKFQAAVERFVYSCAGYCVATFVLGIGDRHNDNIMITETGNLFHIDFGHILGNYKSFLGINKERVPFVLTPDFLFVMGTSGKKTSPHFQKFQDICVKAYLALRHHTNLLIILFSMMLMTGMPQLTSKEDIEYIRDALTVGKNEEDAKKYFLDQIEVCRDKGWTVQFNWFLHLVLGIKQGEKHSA
Sequence of PI3K α (P42336 whole entry): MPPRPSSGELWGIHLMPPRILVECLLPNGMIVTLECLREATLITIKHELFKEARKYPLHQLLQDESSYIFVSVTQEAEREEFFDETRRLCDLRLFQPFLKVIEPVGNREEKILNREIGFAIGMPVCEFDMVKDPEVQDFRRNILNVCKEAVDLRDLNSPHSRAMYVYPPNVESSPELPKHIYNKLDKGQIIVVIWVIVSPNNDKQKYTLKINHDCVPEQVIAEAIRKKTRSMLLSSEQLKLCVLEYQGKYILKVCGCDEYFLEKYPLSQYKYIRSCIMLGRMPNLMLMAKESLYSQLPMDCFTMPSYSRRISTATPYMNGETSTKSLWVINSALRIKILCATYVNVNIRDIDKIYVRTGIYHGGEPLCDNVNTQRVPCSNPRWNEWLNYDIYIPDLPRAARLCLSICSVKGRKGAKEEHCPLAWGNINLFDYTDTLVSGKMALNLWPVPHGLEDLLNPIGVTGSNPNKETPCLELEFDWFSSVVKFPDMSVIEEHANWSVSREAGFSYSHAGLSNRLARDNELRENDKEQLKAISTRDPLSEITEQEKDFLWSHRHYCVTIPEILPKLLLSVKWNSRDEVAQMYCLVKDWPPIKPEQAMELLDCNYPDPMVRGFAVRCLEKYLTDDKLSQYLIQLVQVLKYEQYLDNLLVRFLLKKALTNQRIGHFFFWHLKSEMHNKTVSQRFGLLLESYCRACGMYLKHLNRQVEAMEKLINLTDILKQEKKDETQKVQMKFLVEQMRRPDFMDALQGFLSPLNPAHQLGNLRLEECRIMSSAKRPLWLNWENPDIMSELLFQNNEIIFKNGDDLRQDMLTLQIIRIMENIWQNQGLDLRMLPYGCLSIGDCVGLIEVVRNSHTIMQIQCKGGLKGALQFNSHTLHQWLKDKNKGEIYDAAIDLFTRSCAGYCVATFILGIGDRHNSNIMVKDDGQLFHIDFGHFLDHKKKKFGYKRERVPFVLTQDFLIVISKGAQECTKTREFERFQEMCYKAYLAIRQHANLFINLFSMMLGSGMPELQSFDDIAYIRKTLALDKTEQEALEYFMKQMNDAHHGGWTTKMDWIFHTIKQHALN
Sequence of PI3K α (P27986 whole entry partner): as the sequence (P27986 whole entry partner, species assumed) above
Sequence of PI3K δ (O00329 whole entry, species assumed): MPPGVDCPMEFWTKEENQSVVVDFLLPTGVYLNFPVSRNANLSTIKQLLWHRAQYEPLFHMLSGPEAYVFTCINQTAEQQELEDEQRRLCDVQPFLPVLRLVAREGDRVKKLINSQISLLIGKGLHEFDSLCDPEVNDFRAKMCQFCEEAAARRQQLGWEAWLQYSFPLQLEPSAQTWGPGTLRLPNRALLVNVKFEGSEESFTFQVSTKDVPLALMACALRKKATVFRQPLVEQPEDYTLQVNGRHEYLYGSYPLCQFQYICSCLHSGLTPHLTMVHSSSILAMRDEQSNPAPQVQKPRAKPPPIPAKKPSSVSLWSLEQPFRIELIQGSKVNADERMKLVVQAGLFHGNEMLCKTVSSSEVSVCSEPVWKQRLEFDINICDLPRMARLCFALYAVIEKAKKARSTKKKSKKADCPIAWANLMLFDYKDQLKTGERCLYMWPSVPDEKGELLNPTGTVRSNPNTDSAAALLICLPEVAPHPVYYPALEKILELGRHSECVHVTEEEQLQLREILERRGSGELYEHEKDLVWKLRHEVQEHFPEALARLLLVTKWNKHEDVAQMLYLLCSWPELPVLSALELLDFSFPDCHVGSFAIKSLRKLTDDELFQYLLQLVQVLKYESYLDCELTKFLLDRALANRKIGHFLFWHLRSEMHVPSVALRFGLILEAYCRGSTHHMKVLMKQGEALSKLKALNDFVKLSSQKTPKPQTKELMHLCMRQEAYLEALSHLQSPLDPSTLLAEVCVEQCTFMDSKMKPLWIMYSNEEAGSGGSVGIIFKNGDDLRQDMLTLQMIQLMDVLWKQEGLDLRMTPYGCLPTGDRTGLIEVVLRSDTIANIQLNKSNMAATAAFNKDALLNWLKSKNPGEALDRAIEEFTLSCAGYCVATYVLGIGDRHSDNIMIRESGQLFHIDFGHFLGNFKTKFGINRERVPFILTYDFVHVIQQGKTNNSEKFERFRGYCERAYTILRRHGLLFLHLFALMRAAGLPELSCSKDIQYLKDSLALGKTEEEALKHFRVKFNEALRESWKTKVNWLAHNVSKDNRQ
Sequence of PI3K δ (P27986 whole entry partner, species assumed): as the sequence (P27986 whole entry partner, species assumed) above

Structure (SMILES)	IC50 [1]	IC50 ([2]; Table 2)	IC50 ([3]; Table 2)	IC50 ([4]; Table 2)	IC50 [5]	IC50 [6]	also measured
COc1cc2cc(-c3nn(C(C)C)c4ncnc(N)c34)[nH]c2cc1Cl [Compound 29]	> 500 nM	–	–	–	–	–	–
COc1cccc2cc(-c3nn(C4CCN(C(=O)C5CC5)CC4)c4ncnc(N)c34)[nH]c12 [Compound 66]	> 500 nM	> 500 nM	> 500 nM	> 500 nM	> 500 nM	–	–
CC(C)n1nc(-c2cc3c(Cl)cccc3[nH]2)c2c(N)ncnc21 [Compound 9]	–	–	–	–	–	> 500 nM	–
Nc1ncnc2c1c(-c1cc3cc(O)ccc3[nH]1)nn2CC(=O)N1CCOCC1 [Compound 34]	> 500 nM	> 500 nM	> 500 nM	> 500 nM	–	–	–
Nc1ncnc2c1c(-c1cc3cccc(Cl)c3[nH]1)nn2C1CCOCC1 [Compound 51]	< 50 nM	> 500 nM	< 500 nM	< 500 nM	> 500 nM	–	–
CC(C)n1nc(-c2cc3ccccc3n2C)c2c(N)ncnc21 [Compound 6]	–	–	–	–	–	> 500 nM	–
CC(C)n1nc(-c2cc3cccc(O)c3[nH]2)c2c(N)ncnc21 [Compound 11]	–	–	–	–	–	< 50 nM	–
Nc1ncnc2c1c(-c1cc3cc(O)ccc3[nH]1)nn2C1CC(O)C1 (centres unmarked) [Compound 54]	< 25 nM	> 500 nM	> 500 nM	–	> 500 nM	–	–
CC(C)n1nc(-c2cc3cccc(Cl)c3[nH]2)c2c(N)ncnc21 [Compound 50]	< 50 nM	> 500 nM	< 500 nM	< 500 nM	> 500 nM	–	–
Nc1ncnc2c1c(-c1cc3ccc(O)cc3[nH]1)nn2C1CCOCC1 [Compound 60]	< 100 nM	> 500 nM	< 100 nM	–	> 500 nM	–	–
CC(=O)N1CCC(n2nc(-c3cc4c(Cl)ccc(O)c4[nH]3)c3c(N)ncnc32)CC1 [Compound 69]	< 5 nM	> 500 nM	> 500 nM	–	> 500 nM	–	IC50 [4]: < 500 nM
Nc1nc2cc(-c3cn(C4CCOCC4)c4ncnc(N)c34)ccc2o1 [Compound 9]	–	–	–	–	–	–	EC50 [6]: < 100 nM
Nc1ncnc2c1c(-c1cc3cc(O)ccc3[nH]1)nn2C1CCC1 [Compound 27]	–	–	–	–	–	< 500 nM	–
Nc1ncnc2c1c(-c1cc3cc(O)ccc3[nH]1)nn2CCN1CCOCC1 [Compound 33]	< 500 nM	> 500 nM	> 500 nM	> 500 nM	–	> 500 nM	–
COc1ccc2cc(-c3nn(C4CCOCC4)c4ncnc(N)c34)[nH]c2c1 [Compound 59]	> 500 nM	> 500 nM	> 500 nM	–	> 500 nM	–	–
CC(C)n1nc(-c2cc3cc(O)cc(Cl)c3[nH]2)c2c(N)ncnc21 [Compound 15]	–	–	–	–	–	< 50 nM	–
CC(C)n1nc(-c2cc3cc(O)cc(F)c3[nH]2)c2c(N)ncnc21 [Compound 16]	–	–	–	–	–	< 500 nM	–
COc1cc(Cl)c2[nH]c(-c3nn(C4CCOCC4)c4ncnc(N)c34)cc2c1 [Compound 67]	> 500 nM	> 500 nM	> 500 nM	> 500 nM	> 500 nM	–	–
CC(=O)Nc1nc2cc(-c3nn(C(C)C)c4ncnc(N)c34)ccc2o1 [Compound 2]	–	–	–	–	–	–	EC50 [6]: < 1000 nM
CC(C)N1CCC(n2nc(-c3cc4cc(O)ccc4[nH]3)c3c(N)ncnc32)CC1 [Compound 55]	< 500 nM	> 500 nM	> 500 nM	–	> 500 nM	–	–
Nc1nc2cc(-c3nn(C4CCC(N5CCOCC5)CC4)c4ncnc(N)c34)ccc2o1 (centres unmarked) [Compound 6]	–	–	–	–	–	–	EC50 [6]: < 1000 nM
COc1cccc2cc(-c3nn(C4CCOCC4)c4ncnc(N)c34)[nH]c12 [Compound 63]	< 5 nM	–	< 25 nM	< 25 nM	> 500 nM	–	IC50 [2]: < 500 nM
COc1ccc2cc(-c3nn(C(C)C)c4ncnc(N)c34)[nH]c2c1 [Compound 8]	–	–	–	–	–	> 500 nM	–
COc1ccc(Cl)c2cc(-c3nn(C4CCOCC4)c4ncnc(N)c34)[nH]c12 [Compound 61]	< 25 nM	> 500 nM	> 500 nM	> 500 nM	> 500 nM	–	–
Nc1ncnc2c1c(-c1cc3cc(O)ccc3[nH]1)nn2Cc1cccnc1 [Compound 38]	< 500 nM	> 500 nM	–	> 500 nM	–	> 500 nM	IC50 [3]: > 500 nM
CN1CCN(C2CCC(n3nc(-c4cc5cc(O)ccc5[nH]4)c4c(N)ncnc43)CC2)CC1 (centres unmarked) [Compound 58]	> 500 nM	–	> 500 nM	–	> 500 nM	–	IC50 [2]: > 500 nM
Cc1nccn1CCn1nc(-c2cc3cc(O)ccc3[nH]2)c2c(N)ncnc21 [Compound 44]	< 100 nM	> 500 nM	–	–	> 500 nM	–	IC50 [4]: > 500 nM
Nc1ncnc2c1c(-c1cc3cc(O)ccc3[nH]1)nn2C1CC(N2CCOCC2)C1 (centres unmarked) [Compound 49]	< 10 nM	–	< 500 nM	< 500 nM	> 500 nM	–	IC50 [2]: > 500 nM
Nc1nc2cc(-c3nn(C4CCOCC4)c4ncnc(N)c34)ccc2o1 [Compound 5]	–	–	–	–	–	–	EC50 [6]: < 100 nM
CC(C)N1CCC(n2nc(-c3cc4c(Cl)ccc(O)c4[nH]3)c3c(N)ncnc32)CC1 [Compound 71]	< 100 nM	> 500 nM	> 500 nM	–	> 500 nM	–	IC50 [4]: > 500 nM
